Experimental data taken from US7015325B2, “Tryptase inhibitors” (ALTANA Pharma AG, priority 1999, dated 2006).
Structures can show the parent of a compound that is named as a salt.

Target: human tryptase
Assay: Inhibition of human tryptase (apparent dissociation constant, chromogenic substrate tos-Gly-Pro-arg-pNA)
Format: biochemical
Conditions: apparent dissociation constant in presence of substrate; heparin 0.1–50 μg/ml; equilibrium conditions; read-out: Kiapp
Text: The documented pathophysiological effects of mast cell tryptase are caused directly by the enzymatic activity of the protease. Accordingly, they are reduced or blocked by inhibitors which inhibit the enzymatic activity of the tryptase. A suitable measure for the affinity of a reversible inhibitor to the target protease is the equilibrium dissociation constant Ki of the enzyme-inhibitor complex. This Ki value can be determined via the effect of the inhibitor on the tryptase-induced cleavage of a chromogenic peptide-p-nitroanilide substrate or a fluorogenic peptide-aminomethylcoumarin substrate.
The dissociation constants for the tryptase-inhibitor complexes are determined under equilibrium conditions in accordance with the general proposals of Bieth (Bieth J G, Pathophysiological Interpretation of kinetic constants of protease inhibitors, Bull. Europ. Physiopath. Resp. 16:183–195, 1980) and the methods of Sommerhoff et al. (Sommerhoff C P et al., A Kazal-type inhibitor of human mast cell tryptase: Isolation from the medical leech Hirudo medicinalis, characterization, and sequence analysis, Biol. Chem. Hoppe-Seyler 375: 685–694, 1994).
Human tryptase is isolated from lung tissue or prepared recombinantly; the specific activity of the protease, determined by titration, is usually greater than 85% of the theoretical value. In the presence of heparin (0.1–50 μg/ml) for stabilizing the protease, constant amounts of the tryptase are incubated with increasing amounts of the inhibitors. After an equilibrium between the reaction partners has formed, the remaining enzyme activity after addition of the peptide-p-nitroanilide substrate tos-Gly-Pro-arg-pNA is determined and the cleavage of the latter is monitored at 405 nm for 3 min. Alternatively, the remaining enzymatic activity can also be determined using fluorogenic substrates. The apparent dissociation constants Kiapp (i.e. in the presence of substrate) are subsequently determined by adapting the enzyme rates to the general equation for reversible inhibitors (Morrison J F, Kinetics of the reversible inhibition of enzyme-catalyzed reactions by tight-binding inhibitors, Biochim. Biophys. Acta 185, 269–286, 1969) using non-linear regression: VI/V0=1−{Et+It+Kiapp−[(Et+It+Kiapp)^2−4EtIt]^1/2}/2Et VI and V0 are the rates in the presence and absence, respectively, of the inhibitor, and Et and It are the tryptase and inhibitor concentrations, respectively.
The apparent dissociation constants determined for the compounds according to the invention are shown in Table A below, where the numbers of the compounds correspond to the numbers of the compounds in the examples.

| Compound | Ki [nM] |
| --- | --- |
| NC[C@H]1CC[C@H](C(=O)N2CCN(C(=O)OCCOCC#CCOCCOC(=O)N3CCN(C(=O)[C@H]4CC[C@H](CN)CC4)CC3)CC2)CC1 [Compound 1, 1,4-Bis-[4-(trans-4-aminomethylcyclohexylcarbonyl)-1-piperazinylcarbonyl-1-oxyethyl-2-oxy]-2-butyne dihydrochloride] | 86 |
| NCc1ccc(CNC(=O)N2CCN(C(=O)OCCOCC#CCOCCOC(=O)N3CCN(C(=O)NCc4ccc(CN)cc4)CC3)CC2)cc1 [Compound 2, 1,4-Bis-[4-(4-aminomethylbenzylaminocarbonyl)-1-piperazinylcarbonyl-1-oxyethyl-2-oxy]-2-butyne dihydrochloride] | 0.35 |
| NCc1cccc(CNC(=O)N2CCN(C(=O)OCCOCC#CCOCCOC(=O)N3CCN(C(=O)NCc4cccc(CN)c4)CC3)CC2)c1 [Compound 3, 1,4-Bis-[4-(3-aminomethylbenzylaminocarbonyl)-1-piperazinylcarbonyl-1-oxyethyl-2-oxy]-2-butyne dihydrochloride] | 8 |
| NCc1ccc(CNC(=O)N2CCN(C(=O)OCC#CC#CCOC(=O)N3CCN(C(=O)NCc4ccc(CN)cc4)CC3)CC2)cc1 [Compound 4, 1,6-Bis-[4-(4-aminomethylbenzylaminocarbonyl)-1-piperazinylcarbonyl-1-oxy]-2,4-hexadiyne dihydrochloride] | 0.25 |
| NCc1ccc(CNC(=O)N2CCN(C(=O)OCCCCC#CC#CCCCCOC(=O)N3CCN(C(=O)NCc4ccc(CN)cc4)CC3)CC2)cc1 [Compound 5, 1,12-Bis-[4-(4-aminomethylbenzylaminocarbonyl)-1-piperazinylcarbonyl-1-oxy]-5,7-dodecadiyne dihydrochloride] | 12 |
| NCc1cccc(CNC(=O)N2CCN(C(=O)OCCCCC#CC#CCCCCOC(=O)N3CCN(C(=O)NCc4cccc(CN)c4)CC3)CC2)c1 [Compound 6, 1,12-Bis-[4-(3-aminomethylbenzylaminocarbonyl)-1-piperazinylcarbonyl-1-oxy]-5,7-dodecadiyne dihydrochloride] | 1.4 |
| NCc1cccc(CNC(=O)N2CCN(C(=O)OCC#CC#CCOC(=O)N3CCN(C(=O)NCc4cccc(CN)c4)CC3)CC2)c1 [Compound 7, 1,6-Bis-[4-(3-aminomethylbenzylaminocarbonyl)-1-piperazinylcarbonyl-1-oxy]-2,4-hexadiyne dihydrochloride] | 8 |
